From patent publication US7247645B2, “Dihydropyridine derivatives” (Ajinomoto Co., Inc., priority 1999, dated 2007)
Read-outs that look alike come from different tables or passages of the source.

Columns and labels:
N-type calcium channel [1] = molecular target: T1, N-type calcium channel (Homo sapiens, UniProt Q00975); assay: N-type calcium channel antagonistic activity, changed procedure (calcium concentration change in IMR-32 cells, calculated from inhibition rates); type: cell-based; settings: 60 mM KCl stimulation, Table 10, read-out: N-type inhibition pIC50 (converted)
Description: (§1) The medium used was a Phenol Red-free Eagle minimum essential medium (GIBCO) containing earle's salts supplement, 2 mM of L-glutamine (GIBCO), 1 mM of sodium pyruvate (pH 6.5) (GIBCO), antibiotic/antimicotic mixture (GIBCO) and 10% fetal calf serum (Cell Culture Technologies). 3 ml of 1×10^5/ml IMR-32 cells were spread on a glass dish (Iwaki Glass Co., Ltd.) having a diameter of 35 mm which was treated with poly-D-lysin (SIGMA) and collagen (COLLAGEN VITROGEN 100, Collagen Co.). After the culture for 2 days, 1 mM (final concentration) of dibutyl cAMP and 2.5 μM of bromodeoxyuridine (SIGMA) were added. After the culture for additional 10 to 14 days, the cells were subjected to the activity determination. The medium for IMR-32 cells thus prepared was replaced with 1 ml of Phenol Red-free Eagle minimum essential medium (GIBCO) containing […] 10 μM fura-2/AM (Dojin Kagaku, Co.) and earle's salts supplement, and the incubation was conducted at 25° C. for 1 hour.
(§2) Then the medium was replaced with Phenol Red-free Eagle minimum essential medium (GIBCO) containing earle's salts supplement, from which fura-2/AM had been removed. After the incubation at 37° C. for 1 hour, the medium was replaced with a recording medium (20 mM of HEPES-KOH, 115 mM of NaCl, 5.4 mM of KCl, 0.8 mM of MgCl2, 1.8 mM of CaCl2 and 13.8 mM of D-glucose). Antagonistic activity on N-type calcium channel was determined and analyzed by using a fluorescence microscope (Nikon Corporation) and an image analysis device ARGUS 50 (Hamamatsu Photonics). In particular, a recording medium (20 mM of HEPES-KOH, 115 mM of NaCl, 5.4 mM of KCl, 0.8 mM of MgCl2, 1.8 mM of CaCl2 and 13.8 mM of D-glucose) containing 1 μM of Nifedipine was given to the cells by reflux by a Y-tube method. Then a stimulating agent containing 60 mM of potassium chloride was rapidly given by the Y-tube method. Thereafter stimulating agents containing 60 mM of potassium chloride and 0.1, 1 or 10 μM of test compound were successively rapidly given by the Y-tube method to determine the antagonistic activity on the channel. Finally, a stimulating agent containing 60 mM of potassium chloride and 1 μM of omega conotoxin GVIA (Peptide institute, inc.) was rapidly given by the Y-tube method to realize a condition of 100% inhibition of N-type calcium channel.
The same procedure as that of the above-described tests was repeated except for the following changes: 60 mM of potassium chloride-containing stimulating agent was rapidly given by the Y-tube method while the calcium concentration change in the cells was examined in terms of N-type calcium channel activity. Then Stimulating agents containing 60 mM of potassium chloride and 0.1, 1 or 10 μM of test compound were successively and rapidly given by the Y-tube method. A change in calcium concentration in the cells was determined.

L-type calcium channel = molecular target: T2, L-type calcium channel (Rattus norvegicus, UniProt P22002); assay: Antagonistic activity on L-type calcium channel: relaxation of KCl contraction of rat thoracic aorta samples; settings: High K+ (50 mM KCl) contraction
T2 construct: The slips of thoracic aorta extracted from a Sprague-Dawry rat was used; from tissue; host or cells: rat (Sprague-Dawley) thoracic aorta rings, endothelium removed
Description: The activity of the dihydropyridine derivatives of the present invention to inhibit L-type calcium channel was determined by the following method in which the relaxation reaction on the KCl contraction of samples of thoracic aorta extracted from rats was employed.
1) Method of preparation of samples of thoracic aorta extracted from rats:
The slips of thoracic aorta extracted from a Sprague-Dawry rat was used. The blood vessels were cut to obtain ring-shaped samples having a width of about 3 mm. The endothelial cells of the blood vessel were mechanically removed. The samples were suspended in a strain gage in Tyrode's solution (158.3 mM of NaCl, 4.0 mM of KCl, 1.05 mM of MgCl2, 0.42 mM of NaH2PO4, 10 mM of NaHCO3, 2 mM of CaCl2 and 5 mM of glucose) in which a gaseous mixture of O2 (95%) and CO2 (5%) was introduced. A static tension of 2 g was applied hereto. The tension of the blood vessel was amplified with transducer and a tension amplifier (EF-601G; Nihon Koden Corporation) and recorded with a multi-pen recorder (Rikadenki Kogyo Co., Ltd.). The experiments were conducted at 37° C.
2) Determination of Relaxation After KCl Contraction:
After the tension had been stabilized, the nutrient solution in the sample tank was replaced with High K^+ Tyrode's solution (112.3 mM of NaCl, 50 mM of KCl, 1.05 mM of MgCl2, 0.42 mM of NaH2PO4, 10 mM of NaHCO3, 2 mM of CaCl2 and 5 mM of glucose) to conduct the contraction reaction. 30 minutes after, the solution in the sample tank was replaced with the normal Tyrode's solution. The solution in the sample tank was again replaced with the High K^+ Tyrode's solution and the contraction reaction was observed. After attaining the maximum contraction reaction, the test compound was cumulatively added at intervals of […] to attain concentrations of 10^−7, 10^−6 and 10^−5M. The rate of the test compound to control the maximum contraction reaction was employed as the index of the inhibition activity on L-type calcium channel.

N-type calcium channel [2] = molecular target: T1, N-type calcium channel; assay: Antagonistic activity on N-type calcium channel (fluorescence dye method), IMR-32 cells, in presence of 1 μM Nifedipine; type: cell-based; settings: 60 mM KCl stimulation, 0.1, 1 or 10 μM test compound, Table 9, read-out: N-type inhibition pIC50 (converted)
Description: as §1, §2

[3] = Table 10, read-out: L-type inhibition IC50
[4] = Table 9, read-out: L-type inhibition IC50

T2 sequence (P22002 whole entry): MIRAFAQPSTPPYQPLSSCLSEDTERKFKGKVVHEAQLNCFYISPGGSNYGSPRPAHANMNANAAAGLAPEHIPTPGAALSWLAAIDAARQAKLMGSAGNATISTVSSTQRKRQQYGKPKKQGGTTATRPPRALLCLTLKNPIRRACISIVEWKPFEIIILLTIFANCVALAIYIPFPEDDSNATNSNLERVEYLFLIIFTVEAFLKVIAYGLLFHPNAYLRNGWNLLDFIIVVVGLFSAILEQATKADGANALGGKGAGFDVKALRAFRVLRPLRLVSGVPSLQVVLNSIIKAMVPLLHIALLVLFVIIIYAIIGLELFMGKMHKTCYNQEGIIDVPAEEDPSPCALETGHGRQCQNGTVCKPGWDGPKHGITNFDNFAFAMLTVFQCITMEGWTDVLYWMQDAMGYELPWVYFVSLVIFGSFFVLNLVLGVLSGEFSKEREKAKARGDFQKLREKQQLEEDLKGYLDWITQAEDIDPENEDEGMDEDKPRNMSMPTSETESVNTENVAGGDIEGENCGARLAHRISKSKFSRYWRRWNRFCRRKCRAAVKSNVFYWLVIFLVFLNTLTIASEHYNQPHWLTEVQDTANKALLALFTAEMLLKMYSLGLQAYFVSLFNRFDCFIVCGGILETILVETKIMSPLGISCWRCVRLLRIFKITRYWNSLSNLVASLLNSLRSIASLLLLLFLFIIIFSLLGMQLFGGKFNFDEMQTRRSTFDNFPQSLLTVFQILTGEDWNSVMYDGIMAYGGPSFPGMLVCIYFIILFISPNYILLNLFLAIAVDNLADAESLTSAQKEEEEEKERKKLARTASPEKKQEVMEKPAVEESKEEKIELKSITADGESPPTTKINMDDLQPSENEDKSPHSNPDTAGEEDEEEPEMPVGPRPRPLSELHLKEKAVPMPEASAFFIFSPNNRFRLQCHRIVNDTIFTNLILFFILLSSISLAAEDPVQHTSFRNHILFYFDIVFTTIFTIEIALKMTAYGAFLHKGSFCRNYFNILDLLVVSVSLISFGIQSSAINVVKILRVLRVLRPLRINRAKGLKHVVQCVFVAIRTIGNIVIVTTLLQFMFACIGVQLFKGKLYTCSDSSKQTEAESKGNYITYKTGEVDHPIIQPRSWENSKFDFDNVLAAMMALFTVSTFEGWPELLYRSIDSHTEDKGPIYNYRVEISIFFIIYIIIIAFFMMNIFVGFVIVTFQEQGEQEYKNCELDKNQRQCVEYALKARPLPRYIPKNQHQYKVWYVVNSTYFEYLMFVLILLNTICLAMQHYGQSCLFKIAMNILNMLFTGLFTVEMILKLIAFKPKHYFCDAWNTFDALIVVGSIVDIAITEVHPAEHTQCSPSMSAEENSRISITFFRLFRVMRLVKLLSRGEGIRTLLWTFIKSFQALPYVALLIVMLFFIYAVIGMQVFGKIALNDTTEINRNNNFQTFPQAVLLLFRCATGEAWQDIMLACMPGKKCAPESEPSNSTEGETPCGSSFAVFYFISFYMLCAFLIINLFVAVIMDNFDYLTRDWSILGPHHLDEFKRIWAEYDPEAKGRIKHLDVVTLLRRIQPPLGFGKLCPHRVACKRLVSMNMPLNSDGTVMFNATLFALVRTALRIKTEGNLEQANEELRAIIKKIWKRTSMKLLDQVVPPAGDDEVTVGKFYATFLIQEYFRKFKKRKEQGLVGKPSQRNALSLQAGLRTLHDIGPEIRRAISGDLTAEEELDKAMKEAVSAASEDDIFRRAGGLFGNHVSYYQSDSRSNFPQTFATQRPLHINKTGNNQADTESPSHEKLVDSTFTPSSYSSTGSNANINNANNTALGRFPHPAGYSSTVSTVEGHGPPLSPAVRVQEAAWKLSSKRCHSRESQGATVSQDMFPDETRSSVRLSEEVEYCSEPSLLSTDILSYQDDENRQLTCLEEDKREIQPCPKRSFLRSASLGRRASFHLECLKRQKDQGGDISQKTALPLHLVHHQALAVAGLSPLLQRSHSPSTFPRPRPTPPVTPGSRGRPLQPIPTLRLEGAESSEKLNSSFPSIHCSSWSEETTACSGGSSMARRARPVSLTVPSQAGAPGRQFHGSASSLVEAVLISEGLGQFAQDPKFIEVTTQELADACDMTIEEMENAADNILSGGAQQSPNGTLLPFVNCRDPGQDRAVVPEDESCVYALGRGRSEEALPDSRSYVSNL
T2 sequence (P54290 25-1091 partner): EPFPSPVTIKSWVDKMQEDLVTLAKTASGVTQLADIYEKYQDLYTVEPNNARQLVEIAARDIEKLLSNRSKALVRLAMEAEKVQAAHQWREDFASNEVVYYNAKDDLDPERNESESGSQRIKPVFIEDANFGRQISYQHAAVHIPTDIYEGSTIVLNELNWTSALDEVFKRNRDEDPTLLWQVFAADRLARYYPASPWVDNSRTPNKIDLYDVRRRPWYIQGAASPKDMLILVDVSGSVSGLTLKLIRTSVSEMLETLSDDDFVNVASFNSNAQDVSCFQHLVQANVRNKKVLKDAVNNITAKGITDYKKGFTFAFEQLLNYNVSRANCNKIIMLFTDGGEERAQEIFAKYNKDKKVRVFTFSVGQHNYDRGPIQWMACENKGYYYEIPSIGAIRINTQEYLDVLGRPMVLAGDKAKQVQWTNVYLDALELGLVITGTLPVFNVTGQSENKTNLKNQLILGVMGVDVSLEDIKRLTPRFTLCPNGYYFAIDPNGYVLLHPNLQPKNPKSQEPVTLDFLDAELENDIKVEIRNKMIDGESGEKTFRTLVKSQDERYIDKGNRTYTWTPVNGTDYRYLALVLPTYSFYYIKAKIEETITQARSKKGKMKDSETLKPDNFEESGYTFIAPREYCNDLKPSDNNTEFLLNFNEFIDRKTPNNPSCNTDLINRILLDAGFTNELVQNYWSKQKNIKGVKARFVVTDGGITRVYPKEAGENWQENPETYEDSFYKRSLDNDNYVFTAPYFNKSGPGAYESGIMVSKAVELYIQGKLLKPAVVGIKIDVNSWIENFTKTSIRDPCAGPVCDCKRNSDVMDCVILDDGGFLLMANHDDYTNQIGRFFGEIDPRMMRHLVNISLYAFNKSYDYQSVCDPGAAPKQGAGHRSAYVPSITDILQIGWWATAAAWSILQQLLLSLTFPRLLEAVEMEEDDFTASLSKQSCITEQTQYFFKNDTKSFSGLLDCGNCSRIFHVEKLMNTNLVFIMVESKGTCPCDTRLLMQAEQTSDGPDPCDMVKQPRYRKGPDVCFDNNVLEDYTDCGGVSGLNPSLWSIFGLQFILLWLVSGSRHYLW
T2 sequence (P54287 whole entry partner): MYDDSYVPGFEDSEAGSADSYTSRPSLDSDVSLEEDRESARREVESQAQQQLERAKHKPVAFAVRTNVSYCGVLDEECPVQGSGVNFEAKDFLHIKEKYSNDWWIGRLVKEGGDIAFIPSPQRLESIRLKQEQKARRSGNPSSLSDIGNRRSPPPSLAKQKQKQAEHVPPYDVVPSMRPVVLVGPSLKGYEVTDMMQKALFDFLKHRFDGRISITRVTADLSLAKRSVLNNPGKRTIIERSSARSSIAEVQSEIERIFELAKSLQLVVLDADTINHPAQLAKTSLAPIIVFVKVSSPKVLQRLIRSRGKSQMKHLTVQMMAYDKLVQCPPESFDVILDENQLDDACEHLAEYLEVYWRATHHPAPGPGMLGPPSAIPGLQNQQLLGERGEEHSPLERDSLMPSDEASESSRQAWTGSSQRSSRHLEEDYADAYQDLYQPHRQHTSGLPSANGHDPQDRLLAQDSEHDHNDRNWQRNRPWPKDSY

Row | SMILES | IC50 (N-type calcium channel [1]) [nM] | IC50 (L-type calcium channel; [3]) [nM] | IC50 (N-type calcium channel [2]) [nM] | IC50 (L-type calcium channel; [4]) [nM]
1 | CC1=C(C(=O)O)C(c2cccc(Cl)c2)C(C(=O)OCCC(c2ccccc2)c2ccccc2)=C(COCCO)N1 (stereo not shown) [Example 20, 3-(3,3-diphenylpropane-1-yl)4-(3-chlorophenyl)-2-(2-hydroxyethoxymethyl)-6-methyl-1,4-dihydropyridine-3,5-dicarboxylate] | 3160 | 2880 | 1780 | 2780
2 | CC1=C(C(=O)O)C(c2cccc(Cl)c2)C(C(=O)OCCC(c2ccccc2)c2ccccc2)=C(COCCN2CCCCC2)N1 (stereo not shown) [Example 12, 5-(3,3-diphenylpropane-1-yl)4-(3-chlorophenyl)-2-methyl-6-(2-piperidine-1-yl-ethoxymethyl)-1,4-dihydropyridine-3,5-dicarboxylate] | 3980 | – | 1580 | 2690
3 | COCC1=C(C(=O)OCCC(c2ccccc2)c2ccccc2)C(c2cccc(Cl)c2)C(C(=O)O)=C(C)N1 (stereo not shown) [Example 14, 3-(3,3-diphenylpropane-1-yl)4-(3-chlorophenyl)-2-methoxymethyl-6-methyl-1,4-dihydropyridine-3,5-dicarboxylate] | 2000 | 4270 | 1200 | 4280
4 | COC(OC)C1=C(C(=O)OCCC(c2ccccc2)c2ccccc2)C(c2cccc(Cl)c2)C(C(=O)O)=C(C)N1 (stereo not shown) [Example 60, 3-(3,3-diphenylpropyl)4-(3-chlorophenyl)-2-dimethoxymethyl-6-methyl-1,4-dihydropyridine-3,5-dicarboxylate] | 1580 | 3890 | – | –
5 | CC1=C(C(=O)OCCC(c2ccccc2)c2ccccc2)C(c2cccc(Cl)c2)C(C(=O)N2CCN(C(=O)OC(C)(C)C)CC2)=C(C)N1 (stereo not shown) [Example 15, t-butyl 4-(4-(3-chlorophenyl)-5-(3,3-diphenylpropoxycarbonyl)-2,6-dimethyl-1,4-dihydropyridine-3-carbonyl)piperazine-1-carboxylate] | – | – | 372 | 20800

Further compounds by falling IC50 (L-type calcium channel; [3]), results first:

Row | IC50 (N-type calcium channel [1]) [nM] | IC50 (L-type calcium channel; [3]) [nM] | IC50 (N-type calcium channel [2]) [nM] | IC50 (L-type calcium channel; [4]) [nM] | SMILES
6 | 1580 | 1820 | 1200 | 1800 | CC1=C(C(=O)OCCC(c2ccccc2)c2ccccc2)C(c2cccc(Cl)c2)C(C(=O)O)=C(COCCN2CCCCC2)N1 (stereo not shown) [Example 23, 3-(3,3-diphenylpropane-1-yl)4-(3-chlorophenyl)-2-methyl-6-(2-(piperidine-1-yl)ethoxymethyl)-1,4-dihydropyridine-3,5-dicarboxylate]
7 | 1580 | 1780 | – | – | CC1=C(C(=O)O)C(c2cccc(Cl)c2)C(C(=O)OCCC(c2ccccc2)c2ccccc2)=C(C(F)(F)F)N1 (stereo not shown) [Example 57, 5-(3,3-diphenylpropyl)4-(3-chlorophenyl)-2-methyl-6-trifluoromethyl-1,4-dihydropyridine-3,5-dicarboxylate]
8 | 1580 | 1700 | – | – | CC1=C(C(=O)O)C(c2cccc(Cl)c2)C(C(=O)OCCC(c2ccccc2)c2ccccc2)=C(COCCc2cccnc2)N1 (stereo not shown) [Example 33, 5-(3,3-diphenyl-1-propyl)4-(3-chlorophenyl)-2-methyl-6-(2-(3-pyridine)ethoxy)methyl-1,4-dihydropyridine-3,5-dicarboxylate]
9 | 2000 | 1580 | – | – | CC1=C(C(=O)O)C(c2cccc(Cl)c2)C(C(=O)OCCC(c2ccccc2)c2ccccc2)=C(COCCc2ccncc2)N1 (stereo not shown) [Example 54, 5-(3,3-diphenylpropyl)4-(3-chlorophenyl)-2-methyl-6-(2-[pyridine-4-yl]ethoxymethyl)-1,4-dihydropyridine-3,5-dicarboxylate]
